In ChEMBL document CHEMBL1201862, “PubChem BioAssay data set” (2004):
The source made the active and inactive calls.

Legend:
[1] = Jurkat T cell cytotoxicity, dose response, cytotoxicity control for P. falciparum gametocyte viability project, luminescence (AID 1117277); format: functional, cell-based;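 note: potency reflects loss of cellular ATP meaning fewer viable cells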
[2] = P. falciparum late gametocyte killing, dose response, luminescence (AID 1117278); format: functional, cell-based;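 note: gametocytes exposed to compound for 24 hours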
cells [3] = experiment: cells
[4] = HEp-2 cell cytotoxicity, dose response, cytotoxicity control for RSV inhibitor project, HTS (AID 2410); format: functional; settings: human respiratory syncytial virus
Melanocortin receptor 4 = Melanocortin receptor 4 (Homo sapiens, UniProt P32245); experiment: MC4R antagonist potency on cAMP, dose response, cell-based, TR-FRET, biased antagonists (AID 602298); format: functional;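 note: antagonist potency against agonist-stimulated cAMP production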
Melanocortin receptor 4, sequence (P32245 whole entry): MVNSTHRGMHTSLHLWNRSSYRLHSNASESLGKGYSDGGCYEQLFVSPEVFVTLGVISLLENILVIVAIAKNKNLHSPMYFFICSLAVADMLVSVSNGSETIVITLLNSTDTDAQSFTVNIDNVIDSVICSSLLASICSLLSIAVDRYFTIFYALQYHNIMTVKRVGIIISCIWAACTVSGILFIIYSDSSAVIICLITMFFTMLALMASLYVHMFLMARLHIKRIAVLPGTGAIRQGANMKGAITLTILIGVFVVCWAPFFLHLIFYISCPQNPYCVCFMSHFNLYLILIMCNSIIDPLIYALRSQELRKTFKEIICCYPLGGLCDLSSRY

[5] = nonselective inhibitors of cellular cAMP signaling, dose response, counter-screen for MC4R biased antagonist project, cell-based, TR-FRET cAMP detection (AID 602305); format: functional;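 note: U2OS cells stimulated with forskolin near its EC80 as the cAMP inducer; potency is for inhibition of forskolin-stimulated cAMP signaling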
Vero = experiment: host cell cytotoxicity of antiviral hits, dose response, cytotoxicity control for West Nile virus antiviral project, secondary assay (AID 1650); format: functional; settings: Chlorocebus sabaeus
cells [6] = format: functional, cell-based; settings: HEK-CNG
[7] = Glucagon-like peptide 1 release potency, NCI-H716 cell line, dose-response, half-maximal inhibitory concentration (AID 1117344); format: functional, cell-based
[8] = half-maximal inhibitory concentration for glucagon-like peptide-1 release, STC-1 cell line, dose-response (AID 1117345); format: functional, cell-based
Galanin receptor type 3 = biological target: T1, Galanin receptor type 3 (Homo sapiens, UniProt O60755); experiment: Fluorescence-based cell-based primary high throughput dose response assay to identify antagonists of the Galanin Receptor 3 (GalR3).; format: functional
T1 sequence (O60755 whole entry): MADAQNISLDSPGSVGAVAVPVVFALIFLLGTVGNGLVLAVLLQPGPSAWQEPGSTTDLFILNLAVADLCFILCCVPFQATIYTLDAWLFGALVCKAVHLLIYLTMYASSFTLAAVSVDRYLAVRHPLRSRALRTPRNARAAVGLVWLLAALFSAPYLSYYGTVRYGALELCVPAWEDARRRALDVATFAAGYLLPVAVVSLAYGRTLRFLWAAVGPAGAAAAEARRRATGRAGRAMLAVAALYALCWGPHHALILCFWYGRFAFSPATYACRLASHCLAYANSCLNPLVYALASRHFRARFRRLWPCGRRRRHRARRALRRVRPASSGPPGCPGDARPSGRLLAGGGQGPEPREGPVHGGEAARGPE

[9] = biological target: T2, Low molecular weight phosphotyrosine protein phosphatase (Homo sapiens, UniProt P24666); experiment: LMPTP phosphatase inhibitors, colorimetric pNPP readout, dose response, orthogonal assay, biochemical, absorbance, pNPP substrate, LMPTP-A isoform, set 2 (AID 743308); format: functional
T2 sequence (P24666 whole entry): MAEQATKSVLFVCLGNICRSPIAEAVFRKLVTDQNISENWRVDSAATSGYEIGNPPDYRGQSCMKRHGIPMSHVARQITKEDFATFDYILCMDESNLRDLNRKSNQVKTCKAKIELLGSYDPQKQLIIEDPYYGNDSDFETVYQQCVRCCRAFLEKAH

[10] = biological target: T2, Low molecular weight phosphotyrosine protein phosphatase; experiment: LMPTP phosphatase inhibitors, dose response, biochemical, OMFP substrate, fluorescence intensity, set 2 (AID 743307); format: functional
[11] = inhibitors of intracellular T. cruzi replication, confirmation, NIH3T3 host cells, beta-gal luminescence (AID 2044); format: functional, cell-based;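 note: intracellular parasites grown in NIH/3T3 mouse fibroblasts as host cells; luminescent beta-galactosidase reporter signal from transgenic T. cruzi replicating inside host cells; inhibitors lower the luminescence signal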
cells [12] = experiment: cells; remark: listed apart in the source
[13] = cytotoxicity toward NIH3T3 fibroblasts, dose response, counter-screen, cell-based, ATP luminescence, mouse fibroblasts (AID 2010); format: functional;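 note: cells exposed to compound for about 90 hours before reading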
Cytochrome P450 3A4 = Cytochrome P450 3A4 (Homo sapiens, UniProt P08684); settings: Potency;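 note: confirmatory qHTS run detecting inhibitors and substrates of CYP3A4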
[14] = biological target: Mitogen-activated protein kinase 10 (Homo sapiens, UniProt P53779); experiment: Dose response biochemical screening assay for inhibitors of c-Jun N-Terminal Kinase 3 (JNK3). [Related pubchem assays: 746 ]
Mitogen-activated protein kinase 10, sequence (P53779 whole entry): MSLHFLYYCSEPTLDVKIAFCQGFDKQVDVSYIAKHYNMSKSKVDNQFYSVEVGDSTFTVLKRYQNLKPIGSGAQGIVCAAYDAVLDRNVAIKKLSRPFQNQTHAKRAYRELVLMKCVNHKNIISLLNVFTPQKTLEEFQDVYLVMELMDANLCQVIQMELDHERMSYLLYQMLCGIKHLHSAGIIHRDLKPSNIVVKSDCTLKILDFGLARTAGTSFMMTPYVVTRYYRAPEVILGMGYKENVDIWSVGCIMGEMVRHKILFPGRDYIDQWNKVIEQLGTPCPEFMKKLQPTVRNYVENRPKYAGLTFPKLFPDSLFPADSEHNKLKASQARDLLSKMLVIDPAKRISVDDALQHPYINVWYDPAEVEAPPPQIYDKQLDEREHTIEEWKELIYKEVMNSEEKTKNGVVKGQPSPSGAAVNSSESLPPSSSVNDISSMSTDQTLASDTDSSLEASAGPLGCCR

Kallikrein-7 = Kallikrein-7 (Homo sapiens, UniProt P49862); experiment: Fluorescence Intensity-based biochemical primary high throughput dose response assay to identify activators of kallikrein-7 (K7) zymogen.
Kallikrein-7, sequence (P49862 whole entry): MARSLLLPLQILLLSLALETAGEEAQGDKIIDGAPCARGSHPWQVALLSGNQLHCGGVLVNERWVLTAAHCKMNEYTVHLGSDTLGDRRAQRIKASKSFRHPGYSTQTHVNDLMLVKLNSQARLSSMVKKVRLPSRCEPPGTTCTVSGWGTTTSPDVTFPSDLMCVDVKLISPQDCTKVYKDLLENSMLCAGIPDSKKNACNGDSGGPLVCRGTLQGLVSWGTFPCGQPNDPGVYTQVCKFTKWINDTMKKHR

[15] = biological target: Protein-tyrosine kinase 2-beta (Homo sapiens, UniProt Q14289);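 note: potency of inhibitors of PYK2 kinase phosphorylation of poly-GT substrate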
Protein-tyrosine kinase 2-beta, sequence (Q14289 whole entry): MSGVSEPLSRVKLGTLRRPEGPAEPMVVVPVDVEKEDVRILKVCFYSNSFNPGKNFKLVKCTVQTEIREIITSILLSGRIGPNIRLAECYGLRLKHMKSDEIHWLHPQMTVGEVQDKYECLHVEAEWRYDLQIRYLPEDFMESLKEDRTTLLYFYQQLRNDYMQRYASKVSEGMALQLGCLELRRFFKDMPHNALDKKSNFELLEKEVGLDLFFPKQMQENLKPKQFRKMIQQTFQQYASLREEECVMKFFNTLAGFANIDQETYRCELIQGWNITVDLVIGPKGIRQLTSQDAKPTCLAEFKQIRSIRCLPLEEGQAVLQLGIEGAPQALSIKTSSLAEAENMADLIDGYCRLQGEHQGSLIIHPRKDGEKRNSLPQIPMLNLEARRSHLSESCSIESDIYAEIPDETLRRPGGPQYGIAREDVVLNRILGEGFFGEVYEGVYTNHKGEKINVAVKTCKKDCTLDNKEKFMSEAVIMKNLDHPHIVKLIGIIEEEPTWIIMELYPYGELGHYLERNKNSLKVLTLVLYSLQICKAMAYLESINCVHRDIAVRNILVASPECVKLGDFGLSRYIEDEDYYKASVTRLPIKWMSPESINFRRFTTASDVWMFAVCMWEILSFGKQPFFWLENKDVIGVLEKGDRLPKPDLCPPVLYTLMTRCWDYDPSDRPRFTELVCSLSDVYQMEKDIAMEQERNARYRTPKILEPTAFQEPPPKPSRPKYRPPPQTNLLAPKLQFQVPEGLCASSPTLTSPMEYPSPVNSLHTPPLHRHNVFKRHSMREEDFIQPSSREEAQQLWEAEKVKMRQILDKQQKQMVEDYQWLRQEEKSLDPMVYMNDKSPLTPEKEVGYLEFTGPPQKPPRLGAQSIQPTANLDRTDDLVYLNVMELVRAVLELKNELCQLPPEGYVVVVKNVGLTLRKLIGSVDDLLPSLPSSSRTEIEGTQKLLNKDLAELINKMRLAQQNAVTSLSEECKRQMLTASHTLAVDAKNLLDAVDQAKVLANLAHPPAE

Nonstructural protein 1 = Nonstructural protein 1 (Influenza A virus, UniProt Q194T2); format: functional, Influenza A virus (A/California/07/2009(H1N1))
Nonstructural protein 1, sequence (Q194T2 whole entry): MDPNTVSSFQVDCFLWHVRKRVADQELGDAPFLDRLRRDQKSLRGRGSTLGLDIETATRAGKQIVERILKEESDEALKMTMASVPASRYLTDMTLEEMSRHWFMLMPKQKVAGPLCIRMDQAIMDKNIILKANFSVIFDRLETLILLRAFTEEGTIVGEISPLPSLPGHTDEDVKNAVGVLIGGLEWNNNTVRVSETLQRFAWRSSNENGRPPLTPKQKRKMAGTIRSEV

[16] = biological target: Epstein-Barr nuclear antigen 1 (Epstein-Barr virus (strain B95-8) (HHV-4) (Human herpesvirus 4), UniProt P03211); experiment: EBNA-1 inhibitors, dose response, biochemical, fluorescence polarization, 1536-well (AID 2381); parameters: species or system human gammaherpesvirus 4;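 note: fluorescence polarization of a Cy5 DNA probe bound by EBNA-1 protein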
Epstein-Barr nuclear antigen 1, sequence (P03211 whole entry): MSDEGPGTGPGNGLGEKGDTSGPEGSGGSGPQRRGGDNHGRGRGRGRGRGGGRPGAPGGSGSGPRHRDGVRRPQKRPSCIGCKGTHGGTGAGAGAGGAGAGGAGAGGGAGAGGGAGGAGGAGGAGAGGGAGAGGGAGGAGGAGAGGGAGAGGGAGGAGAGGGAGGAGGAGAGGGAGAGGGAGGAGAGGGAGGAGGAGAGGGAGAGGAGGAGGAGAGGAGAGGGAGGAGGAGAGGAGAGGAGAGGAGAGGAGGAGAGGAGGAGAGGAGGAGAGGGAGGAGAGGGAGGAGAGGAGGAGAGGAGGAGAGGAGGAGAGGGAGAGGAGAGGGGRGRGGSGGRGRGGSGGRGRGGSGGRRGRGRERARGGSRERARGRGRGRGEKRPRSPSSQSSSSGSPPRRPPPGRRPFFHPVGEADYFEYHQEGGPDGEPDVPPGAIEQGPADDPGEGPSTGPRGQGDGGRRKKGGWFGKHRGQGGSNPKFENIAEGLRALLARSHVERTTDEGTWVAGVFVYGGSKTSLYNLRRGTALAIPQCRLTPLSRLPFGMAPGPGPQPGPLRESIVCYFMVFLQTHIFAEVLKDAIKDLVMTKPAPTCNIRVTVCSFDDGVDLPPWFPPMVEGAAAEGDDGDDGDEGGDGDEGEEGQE

[17] = biological target: Lytic switch protein BZLF1 (Epstein-Barr virus (strain B95-8) (HHV-4) (Human herpesvirus 4), UniProt P03206); experiment: EBV ZTA inhibitors, dose response, counter-screen for EBNA-1 inhibitor project, biochemical, fluorescence polarization, Epstein-Barr virus, 1536-well (AID 2377); parameters: species or system human gammaherpesvirus 4;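 note: fluorescence polarization of Cy5-labelled ZRE DNA probe bound by purified Zta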
Lytic switch protein BZLF1, sequence (P03206 whole entry): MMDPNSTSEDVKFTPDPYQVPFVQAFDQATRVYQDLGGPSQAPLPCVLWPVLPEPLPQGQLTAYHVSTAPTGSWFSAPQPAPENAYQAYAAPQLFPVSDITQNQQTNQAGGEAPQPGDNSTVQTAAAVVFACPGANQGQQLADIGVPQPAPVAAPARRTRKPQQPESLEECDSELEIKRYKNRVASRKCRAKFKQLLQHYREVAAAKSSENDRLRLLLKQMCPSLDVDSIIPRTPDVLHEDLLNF

[18] = biological target: 5-hydroxytryptamine receptor 1A (Homo sapiens, UniProt P08908); format: functional
5-hydroxytryptamine receptor 1A, sequence (P08908 whole entry): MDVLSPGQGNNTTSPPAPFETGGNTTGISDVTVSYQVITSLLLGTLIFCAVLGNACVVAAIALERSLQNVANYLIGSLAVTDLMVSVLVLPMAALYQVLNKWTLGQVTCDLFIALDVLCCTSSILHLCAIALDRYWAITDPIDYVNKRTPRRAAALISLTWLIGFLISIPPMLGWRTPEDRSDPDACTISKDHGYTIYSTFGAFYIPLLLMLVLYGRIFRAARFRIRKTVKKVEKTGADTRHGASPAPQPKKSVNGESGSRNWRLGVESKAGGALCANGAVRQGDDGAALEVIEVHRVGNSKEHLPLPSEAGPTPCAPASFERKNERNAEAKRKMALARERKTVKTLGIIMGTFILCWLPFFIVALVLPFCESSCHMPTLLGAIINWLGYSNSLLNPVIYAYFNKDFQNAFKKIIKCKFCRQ

Cytochrome P450 2C9 = Cytochrome P450 2C9 (Homo sapiens, UniProt P11712); settings: Potency
Cytochrome P450 2C9, sequence (P11712 whole entry): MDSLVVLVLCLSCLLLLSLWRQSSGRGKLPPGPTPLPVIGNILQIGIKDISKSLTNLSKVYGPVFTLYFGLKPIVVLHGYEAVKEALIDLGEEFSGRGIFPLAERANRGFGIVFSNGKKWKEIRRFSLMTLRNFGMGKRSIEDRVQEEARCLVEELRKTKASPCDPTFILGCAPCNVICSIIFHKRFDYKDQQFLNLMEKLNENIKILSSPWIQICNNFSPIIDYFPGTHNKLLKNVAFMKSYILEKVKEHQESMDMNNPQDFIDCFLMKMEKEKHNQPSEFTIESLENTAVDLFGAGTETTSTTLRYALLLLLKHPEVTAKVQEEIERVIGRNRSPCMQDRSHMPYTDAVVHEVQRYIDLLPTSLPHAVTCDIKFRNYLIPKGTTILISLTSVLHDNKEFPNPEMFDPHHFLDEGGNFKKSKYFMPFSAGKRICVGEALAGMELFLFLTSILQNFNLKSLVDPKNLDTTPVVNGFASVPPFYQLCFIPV

[19] = cytotoxicity in HPDE-C7 cells, cell-based, fluorescence, HTS (AID 430); format: functional; settings: Homo sapiens
[20] = cytotoxicity in KRAS-transformed pancreatic duct cells, primary screen, cell-based, fluorescence, HTS (AID 431); format: functional; settings: Homo sapiens;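 note: cell line used: HPDE-C7K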
[21] = ADAM10 inhibitors, peptide cleavage, dose response, biochemical, QFRET (AID 743254);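 note: ADAM10 enzyme with the DM2 quenched FRET peptide as substrate; EDANS fluorescence gain as the protease cuts the substrate; inhibitor potency against ADAM10 proteolytic activity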
Estrogen receptor beta [22] = biological target: T3, Estrogen receptor beta (Homo sapiens, UniProt Q92731);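 note: recombinant ER-beta bound to coactivator SRC1 peptide in presence of estradiol agonist; inhibitors block coactivator peptide binding and lower the FRET signal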
T3 sequence (Q92731 whole entry): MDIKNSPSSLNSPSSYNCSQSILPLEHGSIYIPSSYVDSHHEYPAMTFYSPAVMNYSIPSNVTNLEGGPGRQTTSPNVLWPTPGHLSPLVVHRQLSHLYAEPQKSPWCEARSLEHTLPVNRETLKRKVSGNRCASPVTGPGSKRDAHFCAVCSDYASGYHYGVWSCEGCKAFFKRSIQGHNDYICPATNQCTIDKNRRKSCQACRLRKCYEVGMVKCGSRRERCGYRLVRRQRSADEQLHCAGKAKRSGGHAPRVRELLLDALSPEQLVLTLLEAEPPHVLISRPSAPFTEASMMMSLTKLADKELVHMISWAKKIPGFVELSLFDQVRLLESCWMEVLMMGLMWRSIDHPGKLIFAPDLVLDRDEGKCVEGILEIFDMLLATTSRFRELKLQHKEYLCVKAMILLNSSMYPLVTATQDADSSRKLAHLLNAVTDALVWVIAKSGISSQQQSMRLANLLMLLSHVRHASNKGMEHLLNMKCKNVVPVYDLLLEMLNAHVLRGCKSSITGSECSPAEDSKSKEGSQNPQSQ

Estrogen receptor beta [23] = biological target: T3, Estrogen receptor beta; experiment: ERβ–SRC-3 coactivator interaction inhibitors, confirmation, orthogonal assay, biochemical, ELISA, streptavidin-HRP readout (AID 1060)

## CCOC(=O)CC1CCCCN1Cc1cn(C)nc1-c1ccc2c(c1)OCCO2 (configuration not stated)
[1]
  IC50: > 83.3 µM (inactive)
[2]
  IC50: > 109 µM (inactive)

## Cc1ccc(Nc2nc(N/N=C/c3c[nH]c4ccccc34)nc(N3CCOCC3)n2)cc1
Cells [3]
  IC50: 20.5 µM (active)
[4]
  CC50: 18.2 µM (active)
Melanocortin receptor 4
  IC50: > 64.6 µM (inactive)
[5]
  IC50: > 64.6 µM (inactive)
Vero
  CC50: 12.9 µM (active)

## CC(=O)OC(C)C[N+](C)(C)C (configuration not stated) [METHACHOLINE CHLORIDE]
Cells [6]
  EC50: > 30 µM (inactive)
[7]
  IC50: > 40 µM (inactive)
[8]
  IC50: > 40 µM (inactive)
Galanin receptor type 3
  IC50: 7.36 µM (active)

## c1ccc(-c2nc(NCCN3CCOCC3)c3ccccc3n2)cc1
[9]
  IC50: 53.5 µM (inactive)
[10]
  IC50: 25.4 µM (inactive)

## COc1ccc(/C=C/CN2CCCC(CCC(=O)NCc3ccc(F)c(F)c3)C2)cc1 (configuration not stated)
[11]
  EC50: < 0.1 µM (active)
Cells [12]
  EC50: 0.037 µM (active)
[13]
  EC50: > 60 µM (not active)

## Cc1nc(N2CCOCC2)c2nc(-c3ccccc3)n(C(C)CN(C)C)c2n1 (configuration not stated)
Cytochrome P450 3A4
  AC50: 20 µM (inconclusive)

## Fc1cc2nccnc2cc1N1CCSCC1
[14]
  IC50: 50.2 µM (not active)

## O=C(NCCCN1CCOCC1)c1cc2nc(-c3ccco3)cc(C(F)(F)F)n2n1
Kallikrein-7
  EC50: > 69.5 µM (inactive)

## CN(C)c1cc2c(c(N(C)C)c1)C(=O)c1ccccc1C2=O
[15]
  IC50: 2.13 µM (active)
Nonstructural protein 1
  IC50: 14.1 µM (active)

## NS(=O)(=O)c1ccc(NC(=O)COC(=O)/C(=C/c2cccs2)c2cccs2)cc1
[16]
  IC50: 17.1 µM (not active)
[17]
  IC50: > 111 µM (not active)

## Cn1cc(/C(Cc2ccccc2)=N\O)c2ccccc21
[18]
  EC50: > 50 µM (not active)

## CC(=O)c1ccc(OC2C=CC(c3ccc(Cl)cc3)OC2CO)cc1 (configuration not stated)
Cytochrome P450 2C9
  AC50: 5.01 µM (inconclusive)

## COc1ccc(-c2[nH]nc(C(F)(F)F)c2-c2cc3ccccc3o2)c(O)c1
[19]
  EC50: 3.24 µM (active)
[20]
  EC50: 3.68 µM (active)
[21]
  IC50: > 69.5 µM (inactive)

## N=c1c(-c2nc3ccccc3[nH]2)cc(C(=O)c2cccs2)nn1-c1ccc(Cl)cc1
Estrogen receptor beta [22]
  IC50: > 50 µM (not active)
Estrogen receptor beta [23]
  IC50: > 50 µM (not active)

## O=C(CSc1nc2ccccc2[nH]1)NCc1ccco1
[1]
  IC50: > 83.3 µM (inactive)
[2]
  IC50: > 109 µM (inactive)
